≈ marks a conversion by molar mass, not a printed value.
Tests used:
Assay type in all cases: functional
Streptococcus pneumoniae [1] = test: Antibacterial activity against erythromycin-susceptible Streptococcus pneumoniae ATCC 49619 by broth microdilution method
Staphylococcus aureus [2] = test: Antibacterial activity against erythromycin-resistant Staphylococcus aureus PU-19 expressing erm(A) gene by broth microdilution method
Staphylococcus aureus [3] = test: Antibacterial activity against erythromycin-susceptible Staphylococcus aureus ATCC 29213 by broth microdilution method
Streptococcus pneumoniae [4] = test: Antibacterial activity against erythromycin-resistant Streptococcus pneumoniae PU-11 expressing erm and mef gene by broth microdilution method
Staphylococcus aureus [5] = test: Antibacterial activity against erythromycin-resistant Staphylococcus aureus PU-32 expressing erm(A) gene by broth microdilution method
Streptococcus pneumoniae [6] = test: Antibacterial activity against erythromycin-resistant Streptococcus pneumoniae PU-27 expressing erm gene by broth microdilution method
Streptococcus pneumoniae [7] = test: Antibacterial activity against erythromycin-resistant Streptococcus pneumoniae PU-09 expressing mef gene by broth microdilution method

Row | SMILES | MIC (Streptococcus pneumoniae [1]) [µg/mL] | MIC (Staphylococcus aureus [2]) [µg/mL] | MIC (Staphylococcus aureus [3]) [µg/mL] | MIC (Streptococcus pneumoniae [4]) [µg/mL] | MIC (Staphylococcus aureus [5]) [µg/mL] | MIC (Streptococcus pneumoniae [6]) [µg/mL] | MIC (Streptococcus pneumoniae [7]) [µg/mL]
1 | CC[C@H]1OC(=O)[C@H](C)C(=O)[C@H](C)[C@@H](O[C@H]2O[C@H](C)C[C@H](N(C)C)[C@H]2O)[C@](C)(OC)C[C@@H](C)/C(=N\OC/C=C/c2cncc3ccccc23)[C@H](C)[C@@H]2OC(=O)O[C@]12C | 0.032 (≈ 0.0402 µM) | 256 (≈ 322 µM) | 0.064 (≈ 0.0804 µM) | 64 (≈ 80.4 µM) | 0.5 (≈ 0.628 µM) | – | –
2 | CC[C@H]1OC(=O)[C@H](C)[C@@H](O[C@H]2C[C@@](C)(OC)[C@@H](O)[C@H](C)O2)[C@H](C)[C@@H](O[C@@H]2O[C@H](C)C[C@H](N(C)C)[C@H]2O)[C@](C)(O)C[C@@H](C)CN(C)[C@H](C)[C@@H](O)[C@]1(C)O [AZITHROMYCIN] | 0.064 (≈ 0.0854 µM) | > 256 | 0.5 (≈ 0.668 µM) | 128 (≈ 171 µM) | 64 (≈ 85.4 µM) | – | –
3 | C=CCOC1[C@@H](C)C(=O)O[C@H](CC)[C@@](C)(O)[C@H](O)[C@@H](C)/C(=N/OC/C=C/c2cncnc2)[C@H](C)C[C@@](C)(OC)[C@H](O[C@H]2O[C@H](C)C[C@H](N(C)C)[C@H]2O)[C@H]1C (some centres not stated) | 8 (≈ 10.5 µM) | > 256 | 32 (≈ 41.9 µM) | 128 (≈ 168 µM) | 32 (≈ 41.9 µM) | 128 (≈ 168 µM) | 16 (≈ 21 µM)
4 | CC[C@H]1OC(=O)[C@H](C)C(=O)[C@H](C)[C@@H](O[C@H]2O[C@H](C)C[C@H](N(C)C)[C@H]2O)[C@](C)(OC)C[C@@H](C)/C(=N\OC/C=C/c2cccnc2)[C@H](C)[C@@H]2OC(=O)O[C@]12C | 0.032 (≈ 0.0429 µM) | 256 (≈ 343 µM) | 0.125 (≈ 0.168 µM) | 128 (≈ 172 µM) | 0.125 (≈ 0.168 µM) | – | –
5 | CC[C@H]1OC(=O)[C@H](C)[C@@H](O[C@H]2C[C@@](C)(OC)[C@@H](O)[C@H](C)O2)[C@H](C)[C@@H](O[C@@H]2O[C@H](C)C[C@H](N(C)C)[C@H]2O)[C@](C)(OC)C[C@@H](C)C(=O)[C@H](C)[C@@H](O)[C@]1(C)O [CLARITHROMYCIN] | 0.032 (≈ 0.0428 µM) | > 256 | 0.125 (≈ 0.167 µM) | 128 (≈ 171 µM) | 64 (≈ 85.6 µM) | 16 (≈ 21.4 µM) | 4 (≈ 5.35 µM)
6 | CC[C@H]1OC(=O)[C@H](C)C(=O)[C@H](C)[C@@H](O[C@H]2O[C@H](C)C[C@H](N(C)C)[C@H]2O)[C@](C)(OC)C[C@@H](C)/C(=N\OC/C=C/c2ccc(-n3ccnc3)cc2)[C@H](C)[C@@H]2OC(=O)O[C@]12C | ≤ 0.016 | 64 (≈ 78.9 µM) | 0.125 (≈ 0.154 µM) | 32 (≈ 39.5 µM) | 0.125 (≈ 0.154 µM) | 1 (≈ 1.23 µM) | 0.125 (≈ 0.154 µM)
7 | CC[C@H]1OC(=O)[C@H](C)C(=O)[C@H](C)[C@@H](O[C@H]2O[C@H](C)C[C@H](N(C)C)[C@H]2O)[C@](C)(OC)C[C@@H](C)/C(=N\OC/C=C/c2cnc3ccccc3c2)[C@H](C)[C@@H]2OC(=O)O[C@]12C | ≤ 0.016 | 64 (≈ 80.4 µM) | 0.032 (≈ 0.0402 µM) | 32 (≈ 40.2 µM) | 0.064 (≈ 0.0804 µM) | – | –
8 | CC[C@H]1OC(=O)[C@H](C)C(O/C=C\Cc2cncc3ccccc23)[C@H](C)[C@@H](O[C@H]2O[C@H](C)C[C@H](N(C)C)[C@H]2O)[C@](C)(OC)C[C@@H](C)/C(=N\OC/C=C/c2cncc3ccccc23)[C@H](C)[C@@H](O)[C@]1(C)O (some centres not stated) | 16 (≈ 17 µM) | – | 128 (≈ 136 µM) | – | – | – | –
9 | CC[C@H]1OC(=O)[C@H](C)C(=O)[C@H](C)[C@@H](O[C@H]2O[C@H](C)C[C@H](N(C)C)[C@H]2O)[C@](C)(OC)C[C@@H](C)/C(=N\OC/C=C/c2cncnc2)[C@H](C)[C@@H]2OC(=O)O[C@]12C | ≤ 0.016 | 256 (≈ 343 µM) | 0.032 (≈ 0.0428 µM) | 128 (≈ 171 µM) | 0.032 (≈ 0.0428 µM) | 1 (≈ 1.34 µM) | 0.25 (≈ 0.335 µM)
10 | CC[C@H]1OC(=O)[C@H](C)C(=O)[C@H](C)[C@@H](O[C@H]2O[C@H](C)C[C@H](N(C)C)[C@H]2O)[C@](C)(OC)C[C@@H](C)/C(=N\OC/C=C/c2ccc3ncccc3c2)[C@H](C)[C@@H]2OC(=O)O[C@]12C | ≤ 0.016 | 64 (≈ 80.4 µM) | 0.032 (≈ 0.0402 µM) | 32 (≈ 40.2 µM) | ≤ 0.016 | 1 (≈ 1.26 µM) | 0.25 (≈ 0.314 µM)

Reference: ChEMBL document CHEMBL1240467, “Synthesis and antibacterial activities of 6-O-methylerythromycin A 9-O-(3-aryl-2-propenyl) oxime ketolide, 2,3-enol ether, and alkylide analogues” (2010)
